Results reported in the NIST ThermoML archive (doi:10.1021/acs.jced.5b00355).
Numbers after ± are expanded uncertainties.

Assay: cn = amount concentration of the nth substance listed, in mol/dm3
Conditions: 298.2 K, 101 kPa, Liquid, Pycnometric method

Nc1nnc(-c2cccc(Cl)c2Cl)c(N)n1 [lamotrigine] + CC(C)=O
mass density (c1 = 0.0167): 852.8 ± 6.9 kg/m3

Nc1nnc(-c2cccc(Cl)c2Cl)c(N)n1 [lamotrigine] + CCCO
mass density (c1 = 0.0245): 893.8 ± 7.2 kg/m3

Nc1nnc(-c2cccc(Cl)c2Cl)c(N)n1 [lamotrigine] + CCO
mass density (c1 = 0.0134): 851.7 ± 6.8 kg/m3

Nc1nnc(-c2cccc(Cl)c2Cl)c(N)n1 [lamotrigine] + CCOC(C)=O
mass density (c1 = 0.0106): 995.4 ± 8 kg/m3

Nc1nnc(-c2cccc(Cl)c2Cl)c(N)n1 [lamotrigine] + CO
mass density (c1 = 0.0199): 834.7 ± 6.7 kg/m3
